The values below come from ChEMBL document CHEMBL4602733 (J Med Chem, 2020).

For data set [1], the target named is T1, Histamine H4 receptor (Homo sapiens, UniProt Q9H3N8). On the set-up: species or system Sf9.
Data set [2] concerns the target T2, Histamine H3 receptor (Homo sapiens, UniProt Q9Y5N1). Details: species or system Sf9; call rule not given here.
For the next data set, the species on record is Homo sapiens. Details: reference not given here.
The target of data set [3] is T1, Histamine H4 receptor. On the set-up: species or system Sf9. This is another data set of the same source.
In data set [4] the target is T2, Histamine H3 receptor. On the set-up: species or system Sf9. The source holds these as a separate data set.
In data set [5] the target is T2, Histamine H3 receptor. Briefly: Inhibition of UR-DEBa242 binding to human recombinant NLuc/GPCR-fused H3R expressed in HEK293T cells measured after 30 mins by furimazine substrate based BRET assay. The format is cell-based, HEK-293T.
In data set [6] the target is T2, Histamine H3 receptor. Details: species or system Sf9. This is another data set of the same source.
In data set [7] the target is T1, Histamine H4 receptor. The data set can be described thus: Inhibition of UR-DEBa242 binding to human recombinant NLuc/GPCR-fused H4R expressed in HEK293T cells measured after 30 mins by furimazine substrate based BRET assay. In kind it is cell-based, HEK-293T. On the technique in general: Bioluminescence resonance energy transfer reports proximity on the nanometre scale.

Data set [8] has as its target T3, Histamine H4 receptor (Mus musculus, UniProt Q91ZY2).
T3 sequence (Q91ZY2 whole entry): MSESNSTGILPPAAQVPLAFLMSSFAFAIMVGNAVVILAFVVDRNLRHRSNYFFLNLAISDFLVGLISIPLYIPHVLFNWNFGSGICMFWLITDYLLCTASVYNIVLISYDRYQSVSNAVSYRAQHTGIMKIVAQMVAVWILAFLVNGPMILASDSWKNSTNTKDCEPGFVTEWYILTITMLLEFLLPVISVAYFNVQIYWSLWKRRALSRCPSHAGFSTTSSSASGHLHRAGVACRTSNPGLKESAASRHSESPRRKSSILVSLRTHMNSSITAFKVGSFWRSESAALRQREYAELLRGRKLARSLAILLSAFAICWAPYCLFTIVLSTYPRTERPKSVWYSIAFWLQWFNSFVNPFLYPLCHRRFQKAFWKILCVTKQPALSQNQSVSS
Briefly: Inhibition of UR-DEBa242 binding to mouse recombinant NLuc/GPCR-fused H4R expressed in HEK293T cells measured after 30 mins by furimazine substrate based BRET assay. In kind it is cell-based, HEK-293T.

Data set [9] addresses T3, Histamine H4 receptor. Briefly: Displacement of UR-DEBa176 from mouse recombinant H4R expressed in HEK293T-SF-His6-CRE-Luc cells. The format is cell-based.
The target in data set [10] is T1, Histamine H4 receptor.
A further data set concerns the target Histamine H1 receptor (Homo sapiens, UniProt P35367). The data set can be described thus: Displacement of [3H]pyrilamine from human recombinant H1R expressed in baculovirus infected Sf9 insect cell membranes co-expressing RGS4. (In general: Displacement assays read how much labelled ligand stays bound in the presence of the test substance.)
The target of data set [11] is T2, Histamine H3 receptor. Briefly: Antagonist activity at human H3R expressed in HEK293T-SP-FLAG-hH3R-CRE-CBR cells assessed as reduction in histamine-induced inhibition of forskolin stimulated luciferase activity preincubated for 15 mins followed by forskolin and histamine addition by luciferase reporter gene assay. In kind it is functional, cell-based. On the technique in general: A reporter such as luciferase makes a cellular process visible.

Data set [12] concerns the target T2, Histamine H3 receptor. Briefly: Binding affinity to human recombinant NLuc/GPCR-fused H3R expressed in HEK293T cells measured after 30 mins by furimazine substrate based BRET assay. In kind it is cell-based, HEK-293T.
The target of data set [13] is T3, Histamine H4 receptor. Briefly: Antagonist activity at mouse H4R expressed in HEK293 cells co-expressing ELucC/ELucN-beta-arrestin2 assessed as inhibition of histamine-induced beta-arrestin recruitment preincubated for 15 mins followed by histamine addition by luciferase reporter gene assay. In kind it is cell-based.
The nature of data set [14]: Chemical stability of the compound in pH 7.4 phosphate buffered saline at 200 uM incubated for 5 to 6 hrs in 96-well Primaria plates by RP-HPLC method. To be noted: buffer, pH 7.4, 200 µM. The format is physicochemical.
Data set [15] can be described thus: Chemical stability of the compound in pH 7.4 phosphate buffered saline at 200 uM incubated for 5 to 6 hrs in white 96-well cellGrade plates by RP-HPLC method. In kind it is physicochemical. To be noted: buffer, pH 7.4, 200 µM.
A short description of data set [16]: Chemical stability of the compound in pH 7.4 phosphate buffered saline at 200 uM incubated for >= 1 hr in 1.5 mL microtubes by RP-HPLC method. To be noted: buffer, pH 7.4, 1 h. In kind it is physicochemical.
The nature of data set [17]: Chemical stability of the compound in pH 7.4 phosphate buffered saline at 200 uM incubated for >= 1 hr in Sigmacote-treated 1.5 mL microtubes by RP-HPLC method. In kind it is physicochemical. The settings on record: buffer, pH 7.4, 1 h.
The target in data set [18] is T2, Histamine H3 receptor. Briefly: Agonist activity at human H3R expressed in HEK293T-SP-FLAG-hH3R-CRE-CBR cells incubated for 5 hrs by luciferase reporter gene assay. The format is functional, cell-based.
A short description of data set [19]: Drug uptake in wild-type HEK293T cells at 200 nM measured after 20 mins by confocal microscopic analysis. The format is ADME, cell-based. To be noted: human, hek-293t, 0.2 µM.
In data set [20] the target is T2, Histamine H3 receptor. The data set can be described thus: Binding affinity to human recombinant NLuc/GPCR-fused H3R expressed in HEK293T cells assessed as dissociation constant measured after 30 mins in presence of thioperamide by furimazine substrate based BRET assay. The format is cell-based, HEK-293T.
The target in data set [21] is T2, Histamine H3 receptor. The data set can be described thus: Binding affinity to human recombinant NLuc/GPCR-fused H3R expressed in HEK293T cells assessed as association rate constant measured after 30 mins by furimazine substrate based BRET assay. The format is cell-based. To be noted: HEK-293T.
The target in data set [22] is T2, Histamine H3 receptor. The data set can be described thus: Binding affinity to human recombinant NLuc/GPCR-fused H3R expressed in HEK293T cells assessed as dissociation rate constant measured after 30 mins in presence of thioperamide by furimazine substrate based BRET assay. In kind it is cell-based. The settings on record: HEK-293T.
For data set [23], the target named is T2, Histamine H3 receptor. The data set can be described thus: Binding affinity to human recombinant NLuc/GPCR-fused H3R expressed in HEK293T cells assessed as dissociation half life measured after 30 mins in presence of thioperamide by furimazine substrate based BRET assay. To be noted: HEK-293T. The format is cell-based.

The structures appear in SMILES notation.

T1 sequence (Q9H3N8 whole entry): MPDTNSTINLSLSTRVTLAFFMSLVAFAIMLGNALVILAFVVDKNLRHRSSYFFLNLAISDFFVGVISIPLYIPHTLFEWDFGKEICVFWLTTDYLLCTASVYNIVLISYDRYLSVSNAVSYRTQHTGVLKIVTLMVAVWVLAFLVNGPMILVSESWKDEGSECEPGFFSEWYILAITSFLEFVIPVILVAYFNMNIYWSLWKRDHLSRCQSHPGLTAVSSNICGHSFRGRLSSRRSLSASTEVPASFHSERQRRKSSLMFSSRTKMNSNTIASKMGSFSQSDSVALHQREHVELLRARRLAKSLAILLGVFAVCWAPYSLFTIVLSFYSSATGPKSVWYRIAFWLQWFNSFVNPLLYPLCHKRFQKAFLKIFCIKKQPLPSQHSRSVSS
T2 sequence (Q9Y5N1 whole entry): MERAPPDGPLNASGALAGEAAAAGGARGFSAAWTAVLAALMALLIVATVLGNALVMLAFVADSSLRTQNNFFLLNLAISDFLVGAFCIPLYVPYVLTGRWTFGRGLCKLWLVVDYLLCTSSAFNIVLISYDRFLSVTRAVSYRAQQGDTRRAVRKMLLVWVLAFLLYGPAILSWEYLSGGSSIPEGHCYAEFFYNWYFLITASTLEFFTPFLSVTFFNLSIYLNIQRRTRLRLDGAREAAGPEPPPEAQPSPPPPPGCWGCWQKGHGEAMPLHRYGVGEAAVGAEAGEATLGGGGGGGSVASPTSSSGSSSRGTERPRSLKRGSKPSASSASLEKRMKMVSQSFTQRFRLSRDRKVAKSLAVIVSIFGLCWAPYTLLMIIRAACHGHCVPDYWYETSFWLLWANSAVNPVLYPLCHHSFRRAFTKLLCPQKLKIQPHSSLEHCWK
Histamine H1 receptor, sequence (P35367 whole entry): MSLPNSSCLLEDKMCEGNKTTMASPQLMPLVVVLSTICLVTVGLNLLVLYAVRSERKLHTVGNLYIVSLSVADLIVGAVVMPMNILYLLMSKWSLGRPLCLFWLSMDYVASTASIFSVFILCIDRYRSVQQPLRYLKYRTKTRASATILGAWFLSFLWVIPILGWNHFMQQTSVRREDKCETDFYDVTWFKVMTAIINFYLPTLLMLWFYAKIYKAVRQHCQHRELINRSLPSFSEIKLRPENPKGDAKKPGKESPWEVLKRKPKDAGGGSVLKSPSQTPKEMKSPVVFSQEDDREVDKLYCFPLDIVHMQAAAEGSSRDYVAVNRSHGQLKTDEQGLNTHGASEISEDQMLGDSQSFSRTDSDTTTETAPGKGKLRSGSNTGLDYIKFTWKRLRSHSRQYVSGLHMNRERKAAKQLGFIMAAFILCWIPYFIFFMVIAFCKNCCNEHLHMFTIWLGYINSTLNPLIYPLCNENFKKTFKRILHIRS

Turning to `NCCCCCc1c[nH]cn1`, the results for the Ki at Histamine H4 receptor [1] and at Histamine H3 receptor [2] were 631 nM and 37.2 nM, respectively. In addition, in the data set listed under Homo sapiens, the Ratio Ki was 17.
Turning to `Cc1cc(/C=C/C=C/c2ccc(N(C)C)cc2)cc(C)[n+]1CCc1c[nH]cn1`, the Ki is 1950 nM on Histamine H4 receptor [3] and 851 nM on Histamine H3 receptor [4]. Moreover, in the data set listed under Homo sapiens, the Ratio Ki came to 2.29.
Consider `Cc1cc(OCCCNC(=O)CCCCCNC(=O)COc2ccc(/C=C/C3=[N+]4C(=Cc5ccc(-c6ccc[nH]6)n5[B-]4(F)F)C=C3)cc2)ccc1-c1nc2c(C)c(F)ccc2[nH]1`, for which the Ki was 1820 nM on Histamine H4 receptor [3] and 501 nM at Histamine H3 receptor [4].
On Histamine H3 receptor [2], `NCCCc1c[nH]cn1` gave a Ki of 93.3 nM. For the same molecule, the Ratio Ki in the data set filed under Homo sapiens is 0.34.
For `CC(C)(C)CNc1nccc(N2CCc3nc[nH]c3C2)n1`, the figures for the Ki on Histamine H3 receptor [5] and on Histamine H3 receptor [6] were 0.537 nM and 3.16 nM, respectively.
On to `Cc1cc(/C=C/C=C/c2ccc(N(C)C)cc2)cc(C)[n+]1CCCN1CCc2nc[nH]c2C1`, for which, on Histamine H3 receptor [4], the inhibition constant Ki is 457 nM.
Turning to `NC(=NCc1ccc(Cl)cc1)SCCCc1cnc[nH]1` [CLOBENPROPIT], the Ki at Histamine H4 receptor [7] was 77.6 nM; on Histamine H4 receptor [8] it was 123 nM; at Histamine H4 receptor [9], 158 nM; on Histamine H4 receptor [10] it was 39.8 nM.
The molecule `Cc1cc(OCCCNC(=O)CCCCCN2\C(=C/C=C/C=C/C3=[N+](CCCCS(=O)(=O)[O-])c4ccccc4C3(C)C)C(C)(C)c3ccccc32)ccc1-c1nc2c(C)c(F)ccc2[nH]1` had a Ki at Histamine H3 receptor [4] of 2400 nM.
Take `Cc1cc(/C=C/C=C/c2ccc(N(C)C)cc2)cc(C)[n+]1CCCCCc1c[nH]cn1`: the results for the Ki on Histamine H3 receptor [4] and on Histamine H1 receptor were 0.912 nM and over 4790 nM, respectively. For the same molecule, on Histamine H3 receptor [11], the pK is 8.71. Also, the Kd on Histamine H3 receptor [12] (read-out: Kd) was 0.97 nM; on Histamine H3 receptor [12] (read-out: pKd (converted)), 1.15 nM.
As to `Cc1cc(/C=C/C=C/c2ccc(N(C)C)cc2)cc(C)[n+]1CCCNCCc1c[nH]cn1`, the Ki was 933 nM on Histamine H4 receptor [3] and 13.5 nM on Histamine H3 receptor [4]. Further, the Ratio Ki in the data set filed under Homo sapiens is 69.2.
For `Cc1cc(OCCC[n+]2c(C)cc(/C=C/c3cc4c5c(c3)CCCN5CCC4)cc2C)ccc1-c1nc2c(C)c(F)ccc2[nH]1`, the inhibitory constant (Ki) on Histamine H4 receptor [3] is 28200 nM; at Histamine H3 receptor [4], 20400 nM.
`Cc1cc(/C=C/C=C/c2ccc(N(C)C)cc2)cc(C)[n+]1CCCc1c[nH]cn1` gave a Ki on Histamine H3 receptor [4] of 11.7 nM.
On to `S=C(NC1CCCCC1)N1CCC(c2cnc[nH]2)CC1` [THIOPERAMIDE], for which, on Histamine H4 receptor [13], the EC50 is 28.2 nM. The inhibition constant Ki on Histamine H4 receptor [8] was 66.1 nM; on Histamine H4 receptor [9] it was 79.4 nM.
In the case of `Cc1cc(OCCC[n+]2c(C)cc(/C=C/C=C/c3ccc(N(C)C)cc3)cc2C)ccc1-c1nc2c(C)c(F)ccc2[nH]1`, the Ki on Histamine H3 receptor [4] is 1620 nM.
Consider `Cc1cc(/C=C/C=C/c2ccc(N(C)C)cc2)cc(C)[n+]1CCCCc1c[nH]cn1.O=C(O)C(F)(F)F.O=C([O-])C(F)(F)F`, for which the Stability result in [14] is “Stable”; in [15] it was “Stable”; in data set [16], “Unstable”; in [17], “Unstable”. Besides, the Ki is 2.51 nM on Histamine H3 receptor [4] and over 4790 nM on Histamine H1 receptor. Further, on Histamine H3 receptor [18], the EC50 was 1.7 nM. Besides, the Kd on Histamine H3 receptor [12] (read-out: Kd) is 1.35 to 1.94 nM; at Histamine H3 receptor [12] (read-out: pKd (converted)) it was 1.66 nM; on Histamine H3 receptor [20] (read-out: Kd) it was 2.54 to 6.86 nM; at Histamine H3 receptor [20] (read-out: pKd (converted)) it was 4.68 nM. The Drug uptake result in data set [19] is “Active”. The K came out at 1.06e+07 M⁻¹ s⁻¹ at Histamine H3 receptor [21] and 2.79 min⁻¹ on Histamine H3 receptor [22]. The T1/2 on Histamine H3 receptor [23] turned out to be 15 s.
Take `NCCCCc1c[nH]cn1`: the Ratio Ki in the data set listed under Homo sapiens is 2.95.

Usually Ki stands for the dissociation constant of the complex between target and ligand, obtained from inhibition or displacement. What is called EC50 is the midpoint of the concentration-response curve.
